Assays:
[1] = Blood depletion of Gd-DTPA in the rat after three sequential administrations (theoretical example); type: in vivo
Method: In this theoretical example, three 0.5 ml samples of Gd-DTPA (0.05 mg/kg) each dissolved in saline (pH 7) are injected sequentially at 0, 20, and 40 minutes into the tail vein of a rat. Samples of blood are obtained at 10, 30 and 60 minutes following each injection and analyzed for Gd by T1 relaxation. […] This example highlights one advantage of using neutron activation over T1 relaxivity to measure pharmacological rates of elimination when using sequential injections (compare Examples 32 and 33).

[2] = demonstrated by properties of the marketed pharmaceutical product; cited from earlier work
[3] = Effect of dilution on the stability of Sm-DTPA; type: physicochemical
Method: Sm-DTPA (1 mM) was prepared as described in Example 9. The solution was further diluted with 0.01 M Tris buffer pH 7.51:10, 1:100, 1:1000, and 1:10000 and allowed to stand at room temperature for 24 hours. The four samples were then assayed for stability of the Sm-DTPA complex as described in Example 17.

[4] = Stability of chelates in rat serum (CM-Sephadex assay, serum binding); conditions: 24 hours in rat serum at room temperature
[5] = Sm-DTPA 0.1 μM, 24 hours room temperature, Fraction 1: 3 ml Tris before sample
[6] = Sm-DTPA 0.1 μM, 24 hours room temperature, Fraction 2: sample then 3 ml Tris (eluate)
[7] = Sm-DTPA 0.1 μM, 24 hours room temperature, Fraction 3: further 3 ml Tris
[8] = Sm-DTPA 0.1 μM, 24 hours room temperature, Fraction 4: column and contents
[9] = Sm-DTPA 1 μM, 24 hours room temperature, Fraction 1: 3 ml Tris before sample
[10] = Sm-DTPA 1 μM, 24 hours room temperature, Fraction 2: sample then 3 ml Tris (eluate)
[11] = Sm-DTPA 1 μM, 24 hours room temperature, Fraction 3: further 3 ml Tris
[12] = Sm-DTPA 1 μM, 24 hours room temperature, Fraction 4: column and contents
[13] = Sm-DTPA 10 μM, 24 hours room temperature, Fraction 1: 3 ml Tris before sample
[14] = Sm-DTPA 10 μM, 24 hours room temperature, Fraction 2: sample then 3 ml Tris (eluate)
[15] = Sm-DTPA 10 μM, 24 hours room temperature, Fraction 3: further 3 ml Tris
[16] = Sm-DTPA 10 μM, 24 hours room temperature, Fraction 4: column and contents
[17] = Sm-DTPA 100 uM, 24 hours room temperature, Fraction 1: 3 ml Tris before sample
[18] = Sm-DTPA 100 uM, 24 hours room temperature, Fraction 2: sample then 3 ml Tris (eluate)
[19] = Sm-DTPA 100 uM, 24 hours room temperature, Fraction 3: further 3 ml Tris
[20] = Sm-DTPA 100 uM, 24 hours room temperature, Fraction 4: column and contents
[21] = Sm-DTPA 1 mM, Fraction 1: 3 ml Tris before sample
[22] = Sm-DTPA 1 mM, Fraction 2: sample then 3 ml Tris (eluate)
[23] = Sm-DTPA 1 mM, Fraction 3: further 3 ml Tris
[24] = Sm-DTPA 1 mM, Fraction 4: column and contents
[25] = Fraction 1: 0.2 ml sample then 2 ml 0.01M Tris pH 7.5 (eluate)
[26] = Fraction 2: 3 ml 0.01M Tris pH 7.5
[27] = Fraction 3: column and contents (retained)

## O=C([O-])CN(CCN(CC(=O)[O-])CC(=O)O)CCN(CC(=O)[O-])CC(=O)O.[Gd+3] [Gd-DTPA, Gd-diethylenetriaminepentaacetic acid]
[1]; 0 min after 1st injection, Gd-DTPA 0.05 mg/kg i.v. at 0, 20, 40 minutes, T1 relaxation
  Percent of initial injection, First injection: 100% of initial injection
[1]; 0 min after 1st injection, calculated based upon the first injection
  Percent of initial injection, Cumulative total: 100% of initial injection
[1]; 10 min after 1st injection
  Percent of initial injection, Cumulative total: 81% of initial injection
  Percent of initial injection, First injection: 81% of initial injection
[1]; 20 min after 1st (0 min after 2nd) injection
  Percent of initial injection, Second injection: 100% of initial injection
[1]; 20 min after 1st injection
  Percent of initial injection, Cumulative total: 173% of initial injection
  Percent of initial injection, First injection: 73% of initial injection
[1]; 30 min after 1st (10 min after 2nd) injection
  Percent of initial injection, Second injection: 81% of initial injection
[1]; 30 min after 1st injection
  Percent of initial injection, Cumulative total: 140% of initial injection
  Percent of initial injection, First injection: 59% of initial injection
[1]; 40 min after 1st (0 min after 3rd) injection
  Percent of initial injection, Third injection: 100% of initial injection
[1]; 40 min after 1st (20 min after 2nd) injection
  Percent of initial injection, Second injection: 73% of initial injection
[1]; 40 min after 1st injection
  Percent of initial injection, Cumulative total: 220% of initial injection
  Percent of initial injection, First injection: 47% of initial injection
[1]; 50 min after 1st (10 min after 3rd) injection
  Percent of initial injection, Third injection: 81% of initial injection
[1]; 50 min after 1st (30 min after 2nd) injection
  Percent of initial injection, Second injection: 59% of initial injection
[1]; 50 min after 1st injection
  Percent of initial injection, Cumulative total: 175% of initial injection
  Percent of initial injection, First injection: 35% of initial injection
[1]; 60 min after 1st (20 min after 3rd) injection
  Percent of initial injection, Third injection: 73% of initial injection
[1]; 60 min after 1st (40 min after 2nd) injection
  Percent of initial injection, Second injection: 47% of initial injection
[1]; 60 min after 1st injection
  Percent of initial injection, Cumulative total: 149% of initial injection
  Percent of initial injection, First injection: 29% of initial injection
[1]; 70 min after 1st (30 min after 3rd) injection
  Percent of initial injection, Third injection: 59% of initial injection
[1]; 70 min after 1st (50 min after 2nd) injection
  Percent of initial injection, Second injection: 35% of initial injection
[1]; 70 min after 1st injection
  Percent of initial injection, Cumulative total: 120% of initial injection
  Percent of initial injection, First injection: 26% of initial injection
[1]; 80 min after 1st (40 min after 3rd) injection
  Percent of initial injection, Third injection: 47% of initial injection
[1]; 80 min after 1st (60 min after 2nd) injection
  Percent of initial injection, Second injection: 26% of initial injection
[1]; 80 min after 1st injection
  Percent of initial injection, Cumulative total: 95% of initial injection
  Percent of initial injection, First injection: 22% of initial injection
[1]; 100 min after 1st (60 min after 3rd) injection
  Percent of initial injection, Third injection: 35% of initial injection
[1]; 100 min after 1st (80 min after 2nd) injection
  Percent of initial injection, Second injection: 22% of initial injection
[1]; 100 min after 1st injection
  Percent of initial injection, Cumulative total: 75% of initial injection
  Percent of initial injection, First injection: 18% of initial injection
[2]
  stability to autoclaving: stability of gadolinium-DTPA to autoclaving is demonstrated

## O=C([O-])CN(CCN(CC(=O)[O-])CC(=O)[O-])CCN(CC(=O)[O-])CC(=O)[O-].[Sm+3] [Sm-DTPA]
[3]; [5]
  % of total: 0 % of total
  Dpm: 0 dpm
[3]; [6]
  % of total: 99 % of total
  Dpm: 192 dpm
[3]; [7]
  % of total: 1 % of total
  Dpm: 1 dpm
[3]; [8]
  % of total: 0 % of total
  Dpm: 0 dpm
[3]; [9]
  % of total: 0 % of total
  Dpm: 0 dpm
[3]; [10]
  % of total: 96 % of total
  Dpm: 1386 dpm
[3]; [11]
  % of total: 2 % of total
  Dpm: 29 dpm
[3]; [12]
  % of total: 2 % of total
  Dpm: 21 dpm
[3]; [13]
  % of total: 0 % of total
  Dpm: 0 dpm
[3]; [14]
  % of total: 100 % of total
  Dpm: 15685 dpm
[3]; [15]
  % of total: <1 % of total
  Dpm: 19 dpm
[3]; [16]
  % of total: 0 % of total
  Dpm: 0 dpm
[3]; [17]
  % of total: 0 % of total
  Dpm: 0 dpm
[3]; [18]
  % of total: 98 % of total
  Dpm: 162208 dpm
[3]; [19]
  % of total: <1 % of total
  Dpm: 1308 dpm
[3]; [20]
  % of total: 2 % of total
  Dpm: 2121 dpm
[3]; [21]
  % of total: 0 % of total
  Dpm: 0 dpm
[3]; [22]
  % of total: 97 % of total
  Dpm: 1482087 dpm
[3]; [23]
  % of total: 1 % of total
  Dpm: 19089 dpm
[3]; [24]
  % of total: 2 % of total
  Dpm: 24257 dpm
[3]; concentration limits of 1 mM to 0.1 μM, 24 hours room temperature
  stability of the complex on dilution: stable complex
[3]; concentration range of 0.1 μM to 1 mM
  % eluting from CM Sephadex columns: 100%

## O=C([O-])CN(CCN(CC(=O)[O-])CC(=O)[O-])CCN(CC(=O)[O-])CC(=O)[O-].[La+3] [La-DTPA]
[4]; [25]
  % of total: 93 % of total
  dpm: 82912 dpm
[4]; [26]
  % of total: 7 % of total
  dpm: 6167 dpm
[4]; [27]
  % of total: 0 % of total
  dpm: 0 dpm

## O=C([O-])CN(CCN(CC(=O)[O-])CC(=O)[O-])CCN(CC(=O)[O-])CC(=O)[O-].[Eu+3] [Eu-DTPA]
[4]; [25]
  % of total: 91 % of total
  dpm: 4763 dpm
[4]; [26]
  % of total: 9 % of total
  dpm: 499 dpm
[4]; [27]
  % of total: 0 % of total
  dpm: 0 dpm
